Source: publication PMC3517300 (Journal of neurochemistry, 2012)

Experiments:
[1] = test system: DAT in lipid rafts of HEK-293 hDAT cells; assay: Sucrose density fractionation, DAT association with lipid rafts; format: cell-based, human; details: 1% Brij; depletion/chelation or repletion of mβCD depleted cells
[2] = test system: cholesterol-depleted HuH7 hepatoma cells or hippocampal membranes; details: within 1 hr; ref Vainio et al. 2006; Singh et al. 2009; cited from earlier work
[3] = test system: hDAT surface expression in HEK-293 cells; assay: Surface biotinylation and immunoblot of DAT; format: cell-based, human; details: treatment with mβCD, nystatin, or repletion with cholesterol or desmosterol
[4] = biological target: human dopamine transporter (DAT WT) (Homo sapiens, UniProt Q01959); assay: AMPH-induced DA efflux by RDEV, HEK 293-hDAT; format: cell-based; details: for effect on corrected efflux Vmax / effect on Km and Vmax of AMPH-induced DA efflux (RDEV): WT; for effect on corrected efflux Vmax: repletion with 200 µM sterol after 5.0 mM mβCD, or 25 µg/ml nystatin; for effect on Km and Vmax of AMPH-induced DA efflux (RDEV): 5.0 mM mβCD or 25 µg/ml nystatin, 10 µM AMPH
Chain of human dopamine transporter (DAT WT) (Q01959 whole entry): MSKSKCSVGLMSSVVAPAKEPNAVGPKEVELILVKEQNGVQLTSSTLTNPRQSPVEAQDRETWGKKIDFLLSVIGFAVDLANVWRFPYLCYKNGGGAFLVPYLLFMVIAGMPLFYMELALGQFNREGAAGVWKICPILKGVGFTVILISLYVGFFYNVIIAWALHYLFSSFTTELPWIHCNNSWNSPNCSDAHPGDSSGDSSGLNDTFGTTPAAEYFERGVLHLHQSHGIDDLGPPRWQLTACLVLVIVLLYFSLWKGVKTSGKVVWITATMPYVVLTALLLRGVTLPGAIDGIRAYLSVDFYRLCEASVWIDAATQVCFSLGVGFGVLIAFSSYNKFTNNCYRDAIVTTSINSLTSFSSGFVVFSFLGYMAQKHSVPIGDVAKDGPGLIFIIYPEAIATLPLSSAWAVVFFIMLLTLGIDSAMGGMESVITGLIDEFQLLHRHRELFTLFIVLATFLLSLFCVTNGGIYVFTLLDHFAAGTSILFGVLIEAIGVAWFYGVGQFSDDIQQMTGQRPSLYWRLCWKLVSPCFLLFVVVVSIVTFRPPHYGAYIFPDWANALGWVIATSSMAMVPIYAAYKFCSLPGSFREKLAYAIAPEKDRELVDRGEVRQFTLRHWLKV

[5] = biological target: human DAT (LLC-PK-hDAT cells) (Homo sapiens, UniProt Q01959); assay: AMPH-induced [^3H]DA efflux in LLC-PK-hDAT cells; format: cell-based
Chain of human DAT (LLC-PK-hDAT cells) (Q01959 whole entry): as above

W84L DAT mutant [6] = biological target: T1, W84L DAT mutant (Homo sapiens, UniProt Q01959, W84L); assay: AMPH-induced DA efflux by RDEV, W84L hDAT-HEK 293 cells; format: cell-based; details: for effect on AMPH-induced DA efflux Km, Vmax (RDEV): 2.5 mM mβCD or 25 µg/ml nystatin, 10 µM AMPH
T1 sequence (Q01959 1-620 W84L): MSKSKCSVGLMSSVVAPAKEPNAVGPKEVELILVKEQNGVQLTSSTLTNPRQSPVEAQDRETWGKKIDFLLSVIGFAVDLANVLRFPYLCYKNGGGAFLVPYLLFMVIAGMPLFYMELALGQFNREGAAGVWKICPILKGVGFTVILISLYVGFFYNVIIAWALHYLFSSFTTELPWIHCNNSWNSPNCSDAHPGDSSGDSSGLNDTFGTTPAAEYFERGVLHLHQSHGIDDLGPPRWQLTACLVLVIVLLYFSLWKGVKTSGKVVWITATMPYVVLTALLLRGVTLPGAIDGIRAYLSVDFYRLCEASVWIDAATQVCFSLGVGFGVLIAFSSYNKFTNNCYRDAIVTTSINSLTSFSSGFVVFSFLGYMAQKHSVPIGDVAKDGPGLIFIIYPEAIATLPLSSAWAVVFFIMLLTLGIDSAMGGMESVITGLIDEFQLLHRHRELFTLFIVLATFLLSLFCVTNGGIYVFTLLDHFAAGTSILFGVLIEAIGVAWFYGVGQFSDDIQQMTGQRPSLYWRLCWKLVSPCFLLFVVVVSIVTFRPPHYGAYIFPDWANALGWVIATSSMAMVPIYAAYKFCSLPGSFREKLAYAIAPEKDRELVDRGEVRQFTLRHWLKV

[7] = test system: unesterified cholesterol in HEK 293-hDAT cells; assay: Cholesterol quantification; format: cell-based, human; details: for reduction of cholesterol content compared with untreated cells: 30 min, 37°C
W84L DAT mutant [8] = biological target: T1, W84L DAT mutant; assay: DA uptake by RDEV, W84L hDAT-HEK 293 cells; format: cell-based; details: 2.5 mM mβCD or 25 µg/ml nystatin
DAT = details: raft-enriched fractions vs whole cells; ref Foster et al. 2008; cited from earlier work

Compound | DAT distribution across sucrose gradient fractions (raft association) [1] | changes in levels of DAT (total lysates and biotinylated surface fraction) [3] | effect on corrected efflux Vmax [4] | effect on AMPH-induced DA efflux Km, Vmax (RDEV) (W84L DAT mutant [6]) | effect on Km and Vmax of AMPH-induced DA efflux (RDEV) [4] | effect on DA uptake Vmax and Km (RDEV) (W84L DAT mutant [8]) | further results
CC(C)=CCC[C@@H](C)[C@H]1CC[C@H]2[C@@H]3CC=C4C[C@@H](O)CC[C@]4(C)[C@H]3CC[C@]12C [desmosterol] | inefficient at restoring rafts | no significant changes | indistinguishable from control values | – | – | – | increase in cholesterol after replenishment with desmosterol [2]: ≤ 10%
CC(C)CCC[C@@H](C)[C@H]1CC[C@H]2[C@@H]3CC=C4C[C@@H](O)CC[C@]4(C)[C@H]3CC[C@]12C [cholesterol] | restored DAT association with low buoyant density fractions | no significant changes | indistinguishable from control values | – | – | – | –
C[C@H](N)Cc1ccccc1 [AMPH, dextroamphetamine] | – | – | – | – | – | – | [^3H]DA efflux over basal efflux ([5]; 10 µM AMPH, control cells, 5 min, 25°C): ~ 144%
methyl-β-cyclodextrin [mβCD] | significant shift of DAT out of raft fractions 3–4 into denser fractions 7 and up | no significant changes | – | partial rescue of efflux Vmax | large reduction | enhanced uptake Vmax without altering Km | effect on Vmax ratio (incorporating the uptake correction) (W84L DAT mutant [6]; 2.5 mM mβCD): rescued to that of DAT WT control; reduction of cholesterol content compared with untreated cells ([7]; 2.5 mM): 39%; reduction of cholesterol content compared with untreated cells ([7]; 5.0 mM): 63%; reduction in reverse transport (corrected efflux Vmax) ([4]; 5.0 mM mβCD vs control, 37°C): ~ 40%; AMPH-induced [^3H]DA efflux over basal levels ([5]; 2.5 mM mβCD, 10 µM AMPH): 122%; AMPH-induced [^3H]DA efflux over basal levels ([5]; 5.0 mM mβCD, 10 µM AMPH): 115%; loss in efflux function ([5]; 2.5 and 5.0 mM mβCD): ~ 20%
NCCc1ccc(O)c(O)c1 [DA, dopamine] | – | – | – | – | – | – | IC50 of DA competing for [^3H]CFT binding, rafts vs whole cells (DAT): two-fold higher
C[C@@H]1[C@H](O)[C@@H](C)/C=C/C=C/CC/C=C/C=C/C=C/C=C/C(O[C@H]2O[C@H](C)[C@@H](O)[C@H](N)[C@@H]2O)CC2O[C@](O)(CC(O)C(O)CCC(O)CC(O)CC(O)CC(=O)O[C@H]1C)CC(O)C2C(=O)O (some centres unmarked) [nystatin] | significant shift of DAT out of raft fractions 3–4 into denser fractions 7 and up | no significant changes | no significant change | did not affect | no effect | did not significantly change Vmax or Km | change of overall content of cholesterol ([7]; 25 µg/ml): did not change; AMPH-induced [^3H]DA efflux over basal levels ([5]; nystatin treated cells, 10 µM AMPH): 150%
